Entries after “also recorded” stand apart in the source; their conditions may differ.
Tests used:
[1] = test system: ovariectomized female CBA/J mice; assay: Trauma-hemorrhage in ovariectomized female mice: plasma E2 and uterine wet weight; type: in vivo, mouse; settings: 24 h after E2 sc; sham operated or hemorrhaged, vs vehicle
Procedure: To test this, ovariectomized female CBA/J mice were subjected to laparotomy (i.e., soft tissue trauma) and hemorrhagic shock (35±5 mmHg for 90 min, then resuscitated) or sham operation. […] Immune cells were isolated 24 h thereafter.
Experimental groups. Ovariectomy was performed in female CBA/J mice 2 wk before trauma-hemorrhage using two dorsolateral incisions. […] Two weeks after ovariectomy, the animals were divided into four groups. Groups 1 and 2 consisted of sham-operated ovariectomized females, which were neither hemorrhaged nor resuscitated. Animals in groups 3 and 4 consisted of ovariectomized females, which were subjected to the trauma-hemorrhage procedure. […] Each group consisted of 7-8 animals.
Trauma-hemorrhage procedure. […] Blood pressure was constantly monitored by attaching one of the catheters to a blood pressure analyzer (Micro-Med, Louisville, Ky.). […]
Determination of plasma E2 concentration. E2 concentration was determined using a commercially available radio-immunoassay (ICN Biomedicals, Costa Mesa, Calif.) as described by the manufacturer.

[2] = test system: liver ATP and pH; assay: 31P NMR spectroscopy of liver ATP and intracellular pH during hemorrhagic shock; type: in vivo, rat; settings: FIG. 23; vs cyclodextrin control; listed as E2
Procedure: Imaging and nuclear magnetic resonance studies were conducted to evaluate the effects of E2 on preservation of adenosine triphosphate (ATP) and pH levels in the liver.
The traumatic injury can involve a reduction in cellular ATP levels as compared to control ATP levels. By “control” is meant levels as measured before the traumatic injury, or levels that are considered in the “normal” range for the subject. Imaging and nuclear magnetic resonance studies have also been conducted to evaluate the effects of E2 on preservation of adenosine triphosphate (ATP) and pH levels in the liver.
Although E2 administration after trauma-hemorrhage (T-H) and fluid resuscitation produces salutary effects on organ functions, it was not known if E2 has any beneficial effects after major blood loss in the absence of fluid resuscitation. Male SD rats ˜250 g) underwent T-H (tissue trauma, BP 40 mmHg in 10 min and maintained at that BP by further blood withdrawal until maximum bleed out (MBO, 60% of total blood volume) occurred (45:t5 min)). E2 i.v. (1 mg/Kg, 0.4 ml/Kg volume, i.e., 120 μL/300 g body weight) or vehicle (cyclodextrin, CD) was then infused. No additional fluid was given for 3 hours. If rats survived, they received Ringer's lactate, 4× the MBO volume. […]

[3] = test system: spinal cord tissue; assay: Spinal cord injury (clip compression): histology and Luxol fast blue; type: in vivo, mouse; settings: 24 h after SCI; for histological alterations of the spinal cord tissue (H&E, histological score): 17β-estradiol 300 μg/kg sc 1 h before, 3 h and 6 h after SCI, ICI 182,780: 500 μg/kg sc 1 h before 17β-estradiol; for myelin structure (Luxol fast blue): ICI 182,780: co-administered with 17β-estradiol
Procedure: Mice were anaesthetized using chloral hydrate (400 mg/kg body weight) (Genovese 2006). A longitudinal incision was made on the midline of the back, exposing the paravertebral muscles. These muscles were dissected away exposing T5-T8 vertebrae. The spinal cord was exposed via a four-level T6-T7 laminectomy and SCI was produced by extradural compression using an aneurysm clip with a closing force of 24 g. Following surgery, 1 ml of saline was administered subcutaneously in order to replace the blood volume lost during surgery. During the surgery and recovery from anesthesia, the mice were placed on a warm heating pad and covered with a warm towel. […] Food and water were provided to the mice ad libitum. During this time period, the animals' bladders were manually voided twice a day until the mice were able to regain normal bladder function. In all injured groups, the spinal cord was compressed for 1 min. Sham-injured animals were only subjected to laminectomy. […] In the experiments regarding the motor score, the animals from all the experimental groups were observed and treated daily for 9 days after SCI. At different time points (see FIG. 30), the mice (n=10 from each group for each of the 3 time points) were sacrificed in order to evaluate the various parameters as described below. Spinal cord biopsies were taken at 24 hours following trauma. Tissue segments containing the lesion (1 cm on each side of the lesion) were paraffin embedded and cut into 5-μm-thick sections. Tissue sections were deparaffinized with xylene, stained with Haematoxylin/Eosin (H&E) and Luxol Fast Blue staining (used to assess demyelination) and studied using light microscopy (Dialux 22 Leitz). The segments of each spinal cord were evaluated by an experienced histopathologist (RO). Damaged neurons were counted and the histopathologic changes of the gray matter were scored on a 6-point […] 2000): 0, no lesion observed, 1, gray matter contained 1 to 5 eosinophilic neurons; 2, gray matter contained 5 to 10 eosinophilic neurons; 3, gray matter contained more than 10 eosinophilic neurons; 4, small infarction (less than one third of the gray matter area); 5, moderate infarction; (one third to one half of the gray matter area); 6, large infarction (more than half of the gray matter area). The scores from all the sections from each spinal cord were averaged to give a final score for an individual mice. All the histological studies were performed in a blinded fashion.

SMILES	uterine wet weight [1]	intracellular pH in liver [2]	histological alterations of the spinal cord tissue (H&E, histological score) [3]	myelin structure (Luxol fast blue) [3]
C[C@]12CC[C@@H]3c4ccc(O)cc4CC[C@H]3[C@@H]1CC[C@@H]2O [17β-estradiol]	significantly increased	maintenance of pH near neutral; also recorded: pH remains near neutral	significant protection against the SCI-induced histological alteration; also recorded: significant protection from the SCI was observed	myelin degradation was attenuated
C[C@]12CC[C@@H]3c4ccc(O)cc4C[C@@H](CCCCCCCCC[S+]([O-])CCCC(F)(F)C(F)(F)F)[C@H]3[C@@H]1CC[C@@H]2O (stereo partly drawn) [ICI 182,780]	–	–	significantly blocked the effect of the 17β-estradiol	significantly blocked the effect of the 17β-estradiol

From patent publication US9359451B2, “Methods and compositions for treating trauma-hemorrhage using estrogen and derivatives thereof” (THE UAB RESEARCH FOUNDATION, priority 2012, dated 2016)
